Results taken from PubChem BioAssay AID1845208 (Molecular Pharmacology Branch, DTP, NCI, 2023).

Tested on: NCI-H196 SCLC complex tumor spheroid viability
Test: Anticancer human tumor NCI-H196 cell line growth inhibition;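 note: spheroids exposed to compounds for 7 days before readout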;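 for viability, T/C: 100% = DMSO vehicle control wells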
Conditions: for IC50: curve of first compound; for viability, T/C: stronger effect = lower value
Text: Multicellular complex tumor spheroid response to DNA repair inhibitors in combination with DNA-damaging drugs
This study explores the anticancer activities of DNA-damaging drugs and inhibitors of DNA damage repair, both as single agents and in combinations. Complex tumor spheroids comprised of malignant cells, endothelial cells and mesenchymal stem cells served as an in vitro model for human solid tumors. This model system incorporates physiologically relevant features and patient-derived or established malignant cell lines with clinically relevant genetic alterations from many tumor types. Twenty-six patient-derived or established malignant cell lines were evaluated representing sarcoma, melanoma, small cell lung cancer (SCLC), non-small cell lung cancer (NSCLC), as well as bladder, ovarian and pancreatic cancers. The concentration ranges selected for each drug and investigational agent were based upon clinically achievable concentrations if the clinical Cmax of the agent was known.
Compounds. The drugs and compounds olaparib (NSC753686), talazoparib (NSC767125), berzosertib (NSC777718), elimusertib (NSC800525), nedisertib (NSC802822), VX-984 (NSC792969), AZD-1390 (NSC803789), temozolomide (NSC362856), topotecan (NSC609699), trabectedin (NSC813783), staurosporine (NSC755774), and gemcitabine (NSC613327) were obtained from the National Cancer Institute (NCI) Developmental Therapeutics Program Chemical Repository. The FDA-approved anticancer drug set is available from the Developmental Therapeutics Program at https://dtp.cancer.gov/organization/dscb/obtaining/available_plates.htm. […] The stock solutions were prepared in dimethyl sulfoxide (DMSO, Sigma-Aldrich, St. Louis, MO, cat. D2650) at 400-fold the tested concentration and stored at -70 degrees C. Prior to their use, the stock solutions were diluted in fresh medium and the final DMSO concentration in the assay was 0.25% (v/v). All drugs and investigational agents were tested over a range starting from a high concentration at or near the clinical Cmax and decreasing in half-log increments. If the clinical Cmax for an agent had not been determined, the highest concentration tested was 10 microM.
Cell Lines. The patient-derived cancer cell (PDC) lines: 156681-154-R-J1-PDC, 283228-195-R-J1-PDC, 287954-098-R-J1-PDC, 292921-168-R-J2-PDC, 349418-098-R-PDC, 425362-245-T-J1-PDC, 556581-035-R-J1-PDC, and BL0293-F563-PDC were received from the NCI Patient-Derived Models Repository (PDMR, https://pdmr.cancer.gov). The established cell lines HS-SY-2 (RRID:CVCL_8719), MPNST, and SYO-1 (RRID:CVCL_7146) were obtained from the Sloan Kettering Institute. The alveolar soft parts sarcoma cell line ASPS-1 (RRID:CVCL_S738) was established at the NCI and grown from internal seed stocks. The following established cell lines were purchased from the American Type Culture Collection (ATCC, Manassas, VA): G-401 (ATCC, cat. CRL-1441, RRID:CVCL_0270), SW982 (ATCC, cat. HTB-93, RRID:CVCL_1734), VA-ES-BJ (ATCC, cat. CRL-2138, RRID:CVCL_1785), NCI-H719 (ATCC, cat. CRL-5837, RRID:CVCL_1582), NCI-H196 (ATCC, cat. CRL-5823, RRID:CVCL_1509), NCI-H841 (ATCC, cat. CRL-5845, RRID:CVCL_1595), NCI-H1618 (ATCC, cat. CRL-5879, RRID:CVCL_1480), NCI-H1876 (ATCC, cat. CRL-5902, RRID:CVCL_1503), DMS 114 (ATCC, cat. CRL-2066; RRID:CVCL_1174), NCI-H211 (ATCC, cat. CRL-5824; RRID:CVCL_1529), and SW 1271 (ATCC, cat. CRL-2177, RRID:CVCL_1716). The small cell lung cancer cell line COR-L88 was purchased from Sigma-Aldrich (cat. 92031917-1VL, RRID:CVCL_1141). The non-small cell lung cancer cell lines NCI-H226 (RRID:CVCL_1544) and NCI-H322M (RRID:CVCL_1557) were established at the NCI and grown from internal seed stocks. Pooled donor human umbilical vein endothelial cells (HUVEC, Lonza, cat. CC-2519) and human mesenchymal stem cells (hMSC, Lonza, cat. PT-2501) were purchased from Lonza (Walkersville, MD).
Cell Culture. All cells were maintained in an incubator at 37 degrees C and 5% CO2 with 95% humidity. […]

[1] = second compound 0.003 µM, first compound 0.00949 µM
[2] = second compound 0.003 µM, first compound 0.03 µM
[3] = second compound 0.003 µM, first compound 0.0949 µM
[4] = second compound 0.003 µM, first compound 0.3 µM
[5] = second compound 0.003 µM, first compound 0.949 µM
[6] = second compound 0.003 µM, first compound 3 µM
[7] = second compound 0.00949 µM, first compound 0.00949 µM
[8] = second compound 0.00949 µM, first compound 0.03 µM
[9] = second compound 0.00949 µM, first compound 0.0949 µM
[10] = second compound 0.00949 µM, first compound 0.3 µM
[11] = second compound 0.00949 µM, first compound 0.949 µM
[12] = second compound 0.00949 µM, first compound 3 µM
[13] = second compound 0.03 µM, first compound 0.00949 µM
[14] = second compound 0.03 µM, first compound 0.03 µM
[15] = second compound 0.03 µM, first compound 0.0949 µM
[16] = second compound 0.03 µM, first compound 0.3 µM
[17] = second compound 0.03 µM, first compound 0.949 µM
[18] = second compound 0.03 µM, first compound 3 µM
[19] = second compound 0.0949 µM, first compound 0.00949 µM
[20] = second compound 0.0949 µM, first compound 0.03 µM
[21] = second compound 0.0949 µM, first compound 0.0949 µM
[22] = second compound 0.0949 µM, first compound 0.3 µM
[23] = second compound 0.0949 µM, first compound 0.949 µM
[24] = second compound 0.0949 µM, first compound 3 µM
[25] = second compound 0.3 µM, first compound 0.00949 µM
[26] = second compound 0.3 µM, first compound 0.03 µM
[27] = second compound 0.3 µM, first compound 0.0949 µM
[28] = second compound 0.3 µM, first compound 0.3 µM
[29] = second compound 0.3 µM, first compound 0.949 µM
[30] = second compound 0.3 µM, first compound 3 µM

Compound | IC50 (second compound 0.003 µM) | IC50 (second compound 0.00949 µM) | IC50 (second compound 0.03 µM) | IC50 (second compound 0.0949 µM) | IC50 (second compound 0.3 µM) | viability, T/C [3] | viability, T/C [4] | viability, T/C [5] | viability, T/C [6] | viability, T/C [9] | viability, T/C [10] | viability, T/C [11] | viability, T/C [12] | viability, T/C [15] | viability, T/C [16] | viability, T/C [17] | viability, T/C [18] | viability, T/C [21] | viability, T/C [22] | viability, T/C [23] | other results
CNCc1ccc(-c2cc(-c3nc(-c4ccc(S(=O)(=O)C(C)C)cc4)cnc3N)on2)cc1 + CC[C@@]1(O)C(=O)OCc2c1cc1n(c2=O)Cc2cc3c(CN(C)C)c(O)ccc3nc2-1 | > 3 µM | > 3 µM | > 3 µM | > 3 µM | > 3 µM | 101% | 94.3% | 86.2% | 76.1% | 112% | 95.7% | 84.1% | 78.7% | 101% | 93.2% | 76.9% | 81.6% | 121% | 88.7% | 89.3% | viability, T/C [1]: 101%; viability, T/C [2]: 102%; viability, T/C [7]: 98.5%; viability, T/C [8]: 99%; viability, T/C [13]: 101%; viability, T/C [14]: 101%; viability, T/C [19]: 99.9%; viability, T/C [20]: 104%; viability, T/C [24]: 75.1%; viability, T/C [25]: 94.9%; viability, T/C [26]: 93.7%; viability, T/C [27]: 92.7%; viability, T/C [28]: 75%; viability, T/C [29]: 65%; viability, T/C [30]: 57.1%
Cn1ncnc1[C@H]1c2n[nH]c(=O)c3cc(F)cc(c23)N[C@@H]1c1ccc(F)cc1 + CC[C@@]1(O)C(=O)OCc2c1cc1n(c2=O)Cc2cc3c(CN(C)C)c(O)ccc3nc2-1 | > 3 µM | > 3 µM | > 3 µM | > 3 µM | > 3 µM | 96.9% | 95.3% | 95% | 98.2% | 95.5% | 105% | 104% | 102% | 113% | 108% | 104% | 97.4% | 105% | 110% | 106% | viability, T/C [1]: 97.6%; viability, T/C [2]: 90.2%; viability, T/C [7]: 96.5%; viability, T/C [8]: 87.7%; viability, T/C [13]: 104%; viability, T/C [14]: 110%; viability, T/C [19]: 108%; viability, T/C [20]: 108%; viability, T/C [24]: 96.8%; viability, T/C [25]: 99.1%; viability, T/C [26]: 99.9%; viability, T/C [27]: 91%; viability, T/C [28]: 95.3%; viability, T/C [29]: 91.2%; viability, T/C [30]: 82.5%
O=C(c1cc(Cc2n[nH]c(=O)c3ccccc23)ccc1F)N1CCN(C(=O)C2CC2)CC1 + CC[C@@]1(O)C(=O)OCc2c1cc1n(c2=O)Cc2cc3c(CN(C)C)c(O)ccc3nc2-1 | > 30 µM | > 30 µM | > 30 µM | > 30 µM | > 30 µM | 95.4% | 95.2% | 88.3% | 88.2% | 97.7% | 91.3% | 98.7% | 95.9% | 100% | 98% | 101% | 103% | 96.3% | 107% | 99.6% | viability, T/C (second compound 0.003 µM, first compound 9.49 µM): 88.6%; viability, T/C (second compound 0.003 µM, first compound 30 µM): 85.6%; viability, T/C (second compound 0.00949 µM, first compound 9.49 µM): 94.3%; viability, T/C (second compound 0.00949 µM, first compound 30 µM): 96.6%; viability, T/C (second compound 0.03 µM, first compound 9.49 µM): 98.2%; viability, T/C (second compound 0.03 µM, first compound 30 µM): 92%; viability, T/C [24]: 99.6%; viability, T/C (second compound 0.0949 µM, first compound 9.49 µM): 102%; viability, T/C (second compound 0.0949 µM, first compound 30 µM): 97.2%; viability, T/C [27]: 86.8%; viability, T/C [28]: 90.9%; viability, T/C [29]: 88.4%; viability, T/C [30]: 93.9%; viability, T/C (second compound 0.3 µM, first compound 9.49 µM): 82.5%; viability, T/C (second compound 0.3 µM, first compound 30 µM): 83.1%
